{"source": "patent US10226452B2", "about": "“Benzoxazolone derivatives as acid ceramidase inhibitors, and their use as medicaments” (FONDAZIONE ISTITUTO ITALIANO DI TECNOLOGIA, priority 2014, dated 2019)", "key": {"Raw264.7 cells": {"system": "Raw264.7 cells", "assay": "sphingosine and ceramide levels in RAW264.7 cells", "type": "cell-based, mouse", "conditions": "0.1-20 μM, 3 hours", "description": "Specifically it is reported the concentration response of compound of Example 25 or vehicle (0.1% DMSO in DMEM) on AC activity and ceramide levels in RAW264.7 murine cell line. (A) Intact cells were treated with compound of Example 25 (0.1-20 μM) or vehicle and AC activity was measured 3 hours later in cell lysates. (B-E) Intact cells were exposed to compound of Example 25 (0.1-20 μM) for 3 hours and sphingosine/sphinganine (B), dihydroceramides (C), medium chain ceramides (D), long chain ceramides (E) were quantified. Results are expressed as mean±s.e.m. (n=3). *p<0.05, **p<0.01, ***p<0.001 vs vehicle, two-way ANOVA followed by Dunnet.\nLipids were extracted from mouse tissue lysate with a chloroform/MeOH mixture (2:1 v/v, 3 mL) containing internal standards. The organic phase was collected, dried under nitrogen, and dissolved in chloroform/MeOH (1:3 v/v) for LC-MS analyses. Ceramides, sphingosine and sphinganine were analyzed by LC-MS/MS, using a Waters Acquity UPLC coupled with a Waters Xevo TQMS and interfaced with ESI. […]\nTissue-derived sphingosine and sphinganine were identified by comparison of their LC retention times and MS^2 fragmentation patterns with those of authentic standards (Avanti Polar Lipids). Extracted ion chromatograms were used to quantify sphingosine ([…], m/z 300.5>282.5) and sphinganine standard (C18:0, m/z 303>285). […]"}, "MMP-2 (h)": {"target": "MMP-2 (h) (Homo sapiens (Human), UniProt P08253)", "sequence (P08253 110-660)": "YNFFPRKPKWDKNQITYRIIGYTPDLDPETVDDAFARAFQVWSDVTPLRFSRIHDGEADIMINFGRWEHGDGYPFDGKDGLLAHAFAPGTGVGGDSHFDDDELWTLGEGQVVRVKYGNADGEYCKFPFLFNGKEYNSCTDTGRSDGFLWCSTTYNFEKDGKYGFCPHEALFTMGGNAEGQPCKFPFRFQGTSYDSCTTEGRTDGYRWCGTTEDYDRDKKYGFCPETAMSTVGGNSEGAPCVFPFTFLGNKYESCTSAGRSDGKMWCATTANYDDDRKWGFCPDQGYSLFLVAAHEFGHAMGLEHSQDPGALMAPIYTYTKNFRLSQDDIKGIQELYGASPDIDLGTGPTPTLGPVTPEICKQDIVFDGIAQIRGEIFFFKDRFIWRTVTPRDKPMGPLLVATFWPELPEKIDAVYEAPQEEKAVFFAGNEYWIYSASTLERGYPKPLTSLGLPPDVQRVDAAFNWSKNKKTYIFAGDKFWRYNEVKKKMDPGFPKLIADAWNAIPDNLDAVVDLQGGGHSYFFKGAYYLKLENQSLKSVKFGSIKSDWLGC", "assay": "Cerep enzyme inhibition screen: MMP-2", "type": "biochemical", "conditions": "mean of two determinations, read-out: Inhibitory activity (% Inh. at 10 μM), mean", "source_text": "Compound of Example 25 falling in both Formula (I) and (Ia) was selected to be tested for off-target effects on a set of enzymes that include proteases (aspartic, cysteine, and serine), cyclooxygenases as well as lipoxygenases and group IV phospholipase (sPLA2) (Table 3). [table]"}, "MAG levels": {"system": "MAG levels", "assay": "MAG levels in mouse tissues", "type": "in vivo", "conditions": "mice; 10 mg-kg-1 intraperitoneal; after 3 hours", "description": "Specifically, the levels of MAGs were quantified after 3 hours after intraperitoneal injection of compound of Example 25 (10 mg-kg-1). Specifically, levels of 16:0 MAG, 18:0 MAG, 18:1 MAG, 22:4 MAG, 22:6 MAG were measured in the brain (a); levels of 16:0 MAG, 18:0 MAG, 18:1 MAG, 22:4 MAG were measured in the liver (b), in fat (c) and in the heart (d). Results are expressed as mean±s.e.m. (n=5).\nWe homogenized tissue samples (20-30 mg) in methanol (1 mL) containing deuterium-labeled 2-AG (500 pmol) as internal standard (Cayman, Ann Arbor, Mich.). We extracted lipids with chloroform (2 mL) and water (1 mL). The organic phases were dried in a stream of N2, reconstituted in chloroform (2 mL) and fractionated by open-bed silica gel column chromatography as described. The eluded fraction containing 2-AG and anandamide were dried under N2, and residues were suspended in chloroform/methanol (1:3, vol:vol; 100 μL). Analyses were conducted using a liquid chromatography mass spectrometry (LC-MS) apparatus consisting of an Agilent 1100 system and 1946D mass spectrometer detector equipped with ESI interface (Agilent Technologies, Santa Clara, Calif., USA)."}}, "data": [{"smiles": "O=C(NCCCCc1ccccc1)n1c(=O)oc2cc(-c3ccc(F)cc3)ccc21", "note": "[Example 25, 6-(4-Fluorophenyl)-2-oxo-N-(4-phenylbutyl)-1,3-benzoxazole-3-carboxamide]", "values": [{"measurement": "di-hydro ceramides and ceramide species levels", "setting": "Raw264.7 cells", "value": "intracellular accumulation of various di-hydro ceramides and ceramide species"}, {"measurement": "sphingosine levels", "setting": "Raw264.7 cells", "value": "parallel decrease in sphingosine levels"}, {"measurement": "inhibition at 10 µM", "setting": "MMP-2 (h)", "value": 7.2, "unit": "%"}, {"measurement": "levels of the most representative MAGs in brain, liver, fat and heart", "setting": "MAG levels", "value": "remained unchanged"}]}]}
